Reference: US20170291905A1, “ARGININE […] INHIBITORS AND USES THEREOF” (Epizyme, Inc., priority 2014, published 2017)
Where a name gives a salt, the structure may show the parent alone.

Target: T1, full-length human PRMT1 isoform 1 (GST-tagged) (Homo sapiens, UniProt Q99873)
T1 construct: GST-tagged PRMT1 was eluted with 50 mM Tris, 2 mM glutathione, pH 7.8, dialysed in buffer A and concentrated; made in house; host or cells: High Five insect cells (baculovirus)
Assay: PRMT1 biochemical assay (3H-SAM Flashplate, histone H4 36-50 peptide)
Conditions: 0.5 nM PRMT1, 30 min preincubation, 20 nM peptide
From the text: S-adenosylmethionine (SAM), S-adenosylhomocysteine (SAH), bicine, Tween20, dimethylsulfoxide (DMSO), bovine skin gelatin (BSG), and Tris(2-carboxyethyl)phosphine hydrochloride solution (TCEP) were purchased from Sigma-Aldrich at the highest level of purity possible. ^3H-SAM was purchase from American Radiolabeled Chemicals with a specific activity of 80 Ci/mmol. 384-well streptavidin Flashplates were purchased from PerkinElmer.
Peptide representative of human histone H4 residues 36-50 was synthesized with an N-terminal linker-affinity tag motif and a C-terminal amide cap by 21st Century Biochemicals. The peptide was purified by high-performance liquid chromatography (HPLC) to greater than 95% purity and confirmed by liquid chromatography mass spectrometry (LC-MS). The sequence was Biot-Ahx-[…]-amide (SEQ ID NO.:1).
Full-length human PRMT1 isoform 1 (NM_001536.5) transcript clone was amplified from an HEK 293 cDNA library, incorporating flanking 5′ sequence encoding a FLAG tag ([…]) (SEQ ID NO.:2) fused directly to Met 1 of PRMT1. The amplified gene was subcloned into pFastBacI (Life Technologies) modified to encode an N-terminal GST tag and a TEV cleavage sequence
Recombinant baculovirus were generated according to Bac-to-Bac kit instructions (Life Technologies). Protein over-expression was accomplished by infecting exponentially growing High Five insect cell culture at 1.5×10^6 cell/ml with 1:100 ratio of virus. Infections were carried out at 27° C. for 48 hours, harvested by centrifugation, and stored at −80° C. for purification.
GST-tagged PRMT1 was eluted with 50 mM Tris, 2 mM glutathione, pH 7.8, dialysed in buffer A and concentrated to 1 mg/mL. The purity of recovered protein was 73%. Reference: Wasilko, D. J. and S. E. Lee: “TIPS: titerless infected-cells preservation and scale-up” Bioprocess J., 5 (2006), pp. 29-32.
General Procedure for PRMT1 Enzyme Assays on Peptide Substrates.
The assays were all performed in a buffer consisting of 20 mM Bicine (pH=7.6), 1 mM TCEP, 0.005% BSG, and 0.002% Tween 20, prepared on the day of use. Compounds in 100% DMSO (1 ul) were spotted into a polypropylene 384-well V-bottom plates (Greiner) using a Platemate Plus outfitted with a 384-channel head (Thermo Scientific). DMSO (1 ul) was added to Columns 11, 12, 23, 24, rows A-H for the maximum signal control and 1 ul of SAH, a known product and inhibitor of PRMT1, was added to columns 11, 12, 23, 24, rows I-P for the minimum signal control. A cocktail (40 ul) containing the PRMT1 enzyme was added by Multidrop Combi (Thermo-Fisher). The compounds were allowed to incubate with PRMT1 for 30 min at room temperature, then a cocktail (10 ul) containing SAM and peptide was added to initiate the reaction (final volume=51 ul). The final concentrations of the components were as follows: PRMT1 was 0.5 nM, ^3H-SAM was 200 nM, non-radiolabeled SAM was 1.5 uM, peptide was 20 nM, SAH in the minimum signal control wells was 1 mM, and the DMSO concentration was 2%. The assays were stopped by the addition of non-radiolabeled SAM (10 ul) to a final concentration of 300 uM, which dilutes the ^3H-SAM to a level where its incorporation into the peptide substrate is no longer detectable. 50 ul of the reaction in the 384-well polypropylene plate was then transferred to a 384-well Flashplate and the biotinylated peptides were allowed to bind to the streptavidin surface for at least 1 hour before being washed once with 0.1% Tween20 in a Biotek ELx405 plate washer. The plates were then read in a PerkinElmer TopCount plate reader to measure the quantity of ^3H-labeled peptide bound to the Flashplate surface, measured as disintegrations per minute (dpm) or alternatively, referred to as counts per minute (cpm).
Where dpm=disintegrations per minute, cmpd=signal in assay well, and min and max are the respective minimum and maximum signal controls. […]

T1 sequence (Q99873 with tags, fused parts or gaps): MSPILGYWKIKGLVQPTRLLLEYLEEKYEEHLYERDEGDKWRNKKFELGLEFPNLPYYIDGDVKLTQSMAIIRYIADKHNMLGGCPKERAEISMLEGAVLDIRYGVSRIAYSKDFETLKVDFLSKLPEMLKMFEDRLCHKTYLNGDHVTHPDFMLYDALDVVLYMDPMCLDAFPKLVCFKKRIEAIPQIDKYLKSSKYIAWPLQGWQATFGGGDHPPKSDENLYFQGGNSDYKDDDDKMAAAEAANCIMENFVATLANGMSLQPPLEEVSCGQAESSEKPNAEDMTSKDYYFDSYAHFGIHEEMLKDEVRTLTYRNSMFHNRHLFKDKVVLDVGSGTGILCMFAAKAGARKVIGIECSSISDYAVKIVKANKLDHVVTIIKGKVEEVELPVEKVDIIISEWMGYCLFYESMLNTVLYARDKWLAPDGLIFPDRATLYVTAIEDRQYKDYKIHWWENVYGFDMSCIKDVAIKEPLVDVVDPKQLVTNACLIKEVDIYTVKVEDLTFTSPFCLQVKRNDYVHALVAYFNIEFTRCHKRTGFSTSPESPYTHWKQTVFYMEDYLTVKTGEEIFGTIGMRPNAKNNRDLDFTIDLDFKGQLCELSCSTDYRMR

SMILES | IC50 [nM]
CNCCN(C)Cc1c[nH]nc1C1CCC(OCCCOC)C2(CCCC2)C1 (mixture of isomers) [compound 19, N1-((3-(10-(3-methoxypropoxy)spiro[4.5]decan-7-yl)-1H-pyrazol-4-yl)methyl)-N1,N2-dimethylethane-1,2-diamine dihydrochloride] | 11.1
CNCCN(C)Cc1c[nH]nc1[C@@H]1CC[C@@H](OCCCOC)C2(CCCC2)C1 (racemic) [compound 26, N1-((3-((7R,10R)-10-(3-methoxypropoxy)spiro[4.5]decan-7-yl)-1H-pyrazol-4-yl)methyl)-N1,N2-dimethylethane-1,2-diamine] | 14.3
CNCCN(C)Cc1c[nH]nc1C1CC(COCC2CC2)CC(COCC2CC2)C1 (centres unmarked) [compound 2] | 69.2
CNCCN(C)Cc1c[nH]nc1[C@H]1CC[C@@]2(CCCCO2)CC1 [compound 3] | 13.6
CNCCN(C)Cc1c[nH]nc1C1CCC(COCC(C)C)(COCC(C)C)CC1 [compound 6] | 16.7
CNCCN(C)Cc1c[nH]nc1[C@H]1CC[C@]2(CCN(CCC(C)C)C2=O)CC1 [compound 10] | 55
CNCCN(C)Cc1c[nH]nc1C1C[C@@H](C(=O)N(C)CC(C)C)C(C)(C)[C@H](C(=O)N(C)CC(C)C)C1 (some centres unmarked) [compound 12] | > 10000
CNCCN(C)Cc1c[nH]nc1C1C[C@H](C(=O)NCCOC)C(C)(C)[C@H](C(=O)NCCOC)C1 (some centres unmarked) [compound 13] | > 10000
CCN(C)C(=O)C1CC(c2n[nH]cc2CN(C)CCNC)CC(C(=O)NCCC(C)C)C1(C)C (centres unmarked) [compound 14, N1-ethyl-N3-isopentyl-N1,2,2-trimethyl-5-(4-((methyl(2-(methylamino)ethyl)amino)methyl)-1H-pyrazol-3-yl)cyclohexane-1,3-dicarboxamide] | > 10000
CNCCN(C)Cc1c[nH]nc1C1CCC(C)(C)[C@H](OCC(C)C)C1 (stereo partly drawn) [compound 20, ({3-[(3R)-4,4-dimethyl-3-(2-methylpropoxy)cyclohexyl]-1H-pyrazol-4-yl}methyl)(methyl)[2-(methylamino)ethyl]amine] | 11
CCC1CC(c2n[nH]cc2CN(C)CCNC)CC(C(=O)NCCOC)C1(C)C (centres unmarked) [compound 21, 3-ethyl-N-(2-methoxyethyl)-2,2-dimethyl-5-[4-([methyl[2-(methylamino)ethyl]amino]methyl)-1H-pyrazol-3-yl]cyclohexane-1-carboxamide dihydrochloride] | 246
CNCCN(C)Cc1c[nH]nc1[C@H]1CC[C@@H](COCC(F)(F)F)CC1 [compound 23, N1,N2-dimethyl-N1-((3-((1s,4s)-4-((2,2,2-trifluoroethoxy)methyl)cyclohexyl)-1H-pyrazol-4-yl)methyl)ethane-1,2-diamine] | 50.8
CNCCN(C)Cc1cn(C)nc1C1CCC(C)(C)[C@@H](C(=O)NCC(C)C)C1 (some centres unmarked) [compound 25] | 702
CNCCNCc1c[nH]nc1[C@H]1CC[C@]2(CC1)CC(C)(C)CO2 [compound 29, N1-((3-((5r,8r)-3,3-dimethyl-1-oxaspiro[4.5]decan-8-yl)-1H-pyrazol-4-yl)methyl)-N2-methylethane-1,2-diamine] | 193
CNCCN(C)Cc1c[nH]nc1C1CCC(C)(C)[C@H](COCCCOC)C1 (stereo partly drawn) [compound 30, {2-[({3-[(3R)-3-[(3-methoxypropoxy)methyl]-4,4-dimethylcyclohexyl]-1H-pyrazol-4-yl}methyl)(methyl)amino]ethyl}(methyl)amine] | 21
CCOC[C@@H]1CC(c2n[nH]cc2CN(C)CCNC)CCC1(C)C (stereo partly drawn) [compound 31, {2-[({3-[(3R)-3-(ethoxymethyl)-4,4-dimethylcyclohexyl]-1H-pyrazol-4-yl}methyl)(methyl)amino]ethyl}(methyl)amine] | 25
CNCCN(C)Cc1c[nH]nc1C1CCC(C)(C)[C@H](CO)C1 (stereo partly drawn) [compound 32, [(1R)-2,2-dimethyl-5-[4-({methyl[2-(methylamino)ethyl]amino}methyl)-1H-pyrazol-3-yl]cyclohexyl]methanol] | 22.1
CCC1(CC)C[C@]2(CC[C@@H](c3n[nH]cc3CN(C)CCNC)CC2)OC1=O [compound 34, (5r,8r)-3,3-diethyl-8-(4-((methyl(2-(methylamino)ethyl)amino)methyl)-1H-pyrazol-3-yl)-1-oxaspiro[4.5]decan-2-one] | 15.2

Second part, the molecule after the results:

IC50 [nM] | SMILES
6.58 | CNCCN(C)Cc1c[nH]nc1[C@@H]1CC[C@H](OCCCOC)C2(CCCC2)C1 (racemic) [compound 27, N1-((3-((7R,10S)-10-(3-methoxypropoxy)spiro[4.5]decan-7-yl)-1H-pyrazol-4-yl)methyl)-N1,N2-dimethylethane-1,2-diamine]
9.43 | CNCCN(C)Cc1c[nH]nc1[C@H]1CC[C@]2(CCCOC2)CC1 [compound 4, N1-((3-((6s,9s)-2-oxaspiro[5.5]undecan-9-yl)-1H-pyrazol-4-yl)methyl)-N1,N2-dimethylethane-1,2-diamine]
11.7 | CNCCN(C)Cc1c[nH]nc1[C@H]1CC[C@@]2(CCCOC2)CC1 [compound 5, N1-((3-((6r,9r)-2-oxaspiro[5.5]undecan-9-yl)-1H-pyrazol-4-yl)methyl)-N1,N2-dimethylethane-1,2-diamine]
8.7 | CNCCN(C)Cc1c[nH]nc1C1CCC2(CCC(OC)CC2)CC1 (centres unmarked) [compound 9, N1-((3-(9-methoxyspiro[5.5]undecan-3-yl)-1H-pyrazol-4-yl)methyl)-N1,N2-dimethylethane-1,2-diamine]
6.55 | CNCCN(C)Cc1c[nH]nc1[C@H]1CC[C@@]2(CCN(CCC(C)C)C2=O)CC1 [compound 11, (5r,8r)-2-isopentyl-8-(4-((methyl(2-(methylamino)ethyl)amino)methyl)-1H-pyrazol-3-yl)-2-azaspiro[4.5]decan-1-one]
5.6 | CNCCN(C)Cc1c[nH]nc1C1=CCC(CF)(CF)CC1 [compound 15, N-((3-(4,4-bis(fluoromethyl)cyclohex-1-en-1-yl)-1H-pyrazol-4-yl)methyl)-N1,N2-dimethylethane-1,2-diamine]
11.2 | CNCCN(C)Cc1c[nH]nc1C1=CCC(COCC(F)(F)F)CC1 (centres unmarked) [compound 16, N1,N2-dimethyl-N1-((3-(4-((2,2,2-trifluoroethoxy)methyl)cyclohex-1-en-1-yl)-1H-pyrazol-4-yl)methyl)ethane-1,2-diamine]
13.1 | CCC1(CC)CC2(CCC(c3n[nH]cc3CN(C)CCNC)CC2)N(C)C1=O (centres unmarked) [compound 22, 3,3-diethyl-1-methyl-8-(4-((methyl(2-(methylamino)ethyl)amino)methyl)-1H-pyrazol-3-yl)-1-azaspiro[4.5]decan-2-one]
12.4 | CNCCN(C)Cc1c[nH]nc1[C@H]1CC[C@H](COCC(F)(F)F)CC1 [compound 24, N1,N2-dimethyl-N1-((3-((1r,4r)-4-((2,2,2-trifluoroethoxy)methyl)cyclohexyl)-1H-pyrazol-4-yl)methyl)ethane-1,2-diamine]
13.2 | CNCCNCc1c[nH]nc1[C@H]1CC[C@@]2(CC1)CC(C)(C)CO2 [compound 28, N1-((3-((5s,8s)-3,3-dimethyl-1-oxaspiro[4.5]decan-8-yl)-1H-pyrazol-4-yl)methyl)-N2-methylethane-1,2-diamine]
13.2 | CCC1(CC)C[C@]2(CC[C@H](c3n[nH]cc3CN(C)CCNC)CC2)OC1=O [compound 33, (5s,8s)-3,3-diethyl-8-(4-((methyl(2-(methylamino)ethyl)amino)methyl)-1H-pyrazol-3-yl)-1-oxaspiro[4.5]decan-2-one]
